pKi: −log10 of the molar value.

A word on the pKi: it is the negative decadic logarithm of the Ki, by convention in mol/L. Higher therefore signals a small Ki.

The target of the first assay is human A2A receptor (Homo sapiens (Human), UniProt P29274). Kind of assay: A2A competition binding assay using Scintillation Proximity technology. The settings on record: 0.25 μg of membranes from HEK293 cells expressing the human A2a receptor per well; 0.5 nM tritiated radioligand; Cheng-Prusoff. On the procedure: Binding affinities of compounds of the invention for the human A2A receptor were determined in a competition binding assay using Scintillation Proximity technology. Thus, 1^μg (^ denotes 1 μg of membrane/well), or preferably 0.25 μg of membranes from HEK293 cells expressing the human A2a receptor were incubated with a compound of the invention at concentrations ranging from 3000 nM to 0.15 nM in a reaction mixture containing also 0.5 nM of a tritiated form of 5-amino-7-[2-phenethyl]-2-(furan-2-yl)-7H-pyrazolo[4,3-e][1,2,4]triazolo[1,5-c]pyrimidine (the tritiated compound) and 25 μg of wheat germ agglutin-coated yttrium silicate SPA beads for one hour at room temperature with agitation. The beads were then allowed to settle to the bottom of the wells for 1 hr, after which the membrane-associated radioactivity was determined by scintillation counting in a TopCount microplate reader. Ki values were determined using the Cheng-Prusoff equation.
Sequence of human A2A receptor (P29274 whole entry): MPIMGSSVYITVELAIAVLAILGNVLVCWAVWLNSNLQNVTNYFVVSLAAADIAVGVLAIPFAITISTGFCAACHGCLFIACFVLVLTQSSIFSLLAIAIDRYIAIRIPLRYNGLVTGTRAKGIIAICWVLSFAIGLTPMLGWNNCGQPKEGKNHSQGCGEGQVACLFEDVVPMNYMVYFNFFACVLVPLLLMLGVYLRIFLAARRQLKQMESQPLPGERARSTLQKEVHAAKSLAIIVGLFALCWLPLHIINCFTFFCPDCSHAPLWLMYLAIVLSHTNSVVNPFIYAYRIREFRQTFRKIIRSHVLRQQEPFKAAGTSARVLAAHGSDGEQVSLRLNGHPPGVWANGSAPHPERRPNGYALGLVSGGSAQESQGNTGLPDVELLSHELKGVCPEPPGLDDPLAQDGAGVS
HEK293 cells expressing the human, rat, dog or monkey adenosine 2a receptor (Purchased from Perkin-Elmer # RBHA2AM400UA).
The Tritiated compound was prepared in-house by MRL Radiochemistry according to published methods.
Wheat germ agglutinin-coated yttrium silicate SPA beads (GE Healthcare #RPNQ0023). Dilute to 25 mg/mL in assay buffer.
Assay Buffer was prepared in house: Dulbecco's calcium and magnesium free phosphate buffered saline+10 mM MgCl2
Adenosine deaminase from calf intestine, 10 mg/2 mL (Roche #10 102 105 001).
A2A antagonist standard (9-chloro-1-(2-furanyl)-[1,2,4]triazolo[1,5-c]quinazolin-5-amine from Tocris Bioscience)
Make eight 1:3 serial dilutions in 100% DMSO from a 3 mM compound stock
Transfer 50 nL of compound into a 384-well OptiPlate (Perkin Elmer).
Typically, final concentrations of compound used in the assay ranged from 3000 nM to 0.152 nM.
Dilute a solution of the Tritiated compound to 1.25 nM in assay buffer. This a 2.5× solution. The final concentration in the assay is 0.5 nM. Calculate the concentration by counting two 5 μL aliquots.
Use *1 ug or preferrably 0.25 ug of membrane/well. Dilute membranes to 9.7 μg/ml in assay buffer. Treat with 20 ug/ml adenosine deaminase (ADA) for 15 minutes at room temperature to degrade endogenous adenosine.
Use 25 μg/well wheat germ agglutinin-coated yttrium silicate SPA beads.
Mix ADA-treated membranes and SPA beads together for 30 min prior to assay.
To the Perkin-Elmer Optiplate-384 containing the compound titration add 20 μL of 2.5× solution of the Tritiated compound and 30 μL of the membrane-bead mixture. Incubate for one hour at room temperature with agitation.
Include total binding (assay buffer+1% DMSO) and non-specific binding (CGS15943, 1 μM) wells.
Allow the beads to settle for one hour.
A curve fitting program (i.e., Prism, Activity Base, Chemcart) is used to determine the EC50. The Ki value is calculated using the Cheng-Prusoff equation. Ki=EC50/(1+(radioligand concentration/Kd)) Counting and Calculations
Counting and calculations were performed as described within the “A2A Activity Binding of Compounds of the Invention” section. Using the foregoing methods, the following results were obtained using compounds of the invention described herein. Each example compound tested is reported in the following format: Example number: A2A Ki (nM) selectivity.
On to `Nc1nc2cc(Cl)ccc2c2nc([C@@H]3CCCN(CC(F)F)C3)nn12` [Example 26, (R)-8-chloro-2-(1-(2,2-difluoroethyl)piperidin-3-yl)-[1,2,4]triazolo[1,5-c]quinazolin-5-amine], for which the pKi was 8.89. The compound `CCC(C)(C)N1CCC[C@@H](c2nc3c4cccc(OC)c4nc(N)n3n2)C1` [Example 31, (R)-7-methoxy-2-(1-(tert-pentyl)piperidin-3-yl)-[1,2,4]triazolo[1,5-c]quinazolin-5-amine] had a pKi of 7.48. Consider `Nc1nc2ccccc2c2nc([C@@H]3CCCN(CC(F)F)C3)nn12` [Example 28, (R)-2-(1-(2,2-difluoroethyl)piperidin-3-yl)-[1,2,4]triazolo[1,5-c]quinazolin-5-amine], for which the pKi is 7.96.

`COc1cccc2c1nc(N)n1nc(C3CCCC(CCC(F)(F)F)C3)nc21` (single isomer, unassigned) [Example 29A, 7-methoxy-2-(3-(3,3,3-trifluoropropyl)cyclohexyl)-[1,2,4]triazolo[1,5-c]quinazolin-5-amine]: the pKi was 7.80. Compound `COc1cccc2c1nc(N)n1nc([C@@H]3CCCN(CC(F)(F)F)C3)nc21` [Example 23, (R)-7-methoxy-2-(1-(2,2,2-trifluoroethyl)piperidin-3-yl)-[1,2,4]triazolo[1,5-c]quinazolin-5-amine] gave a pKi of 9.10.

On to `COc1cccc2c1nc(N)n1nc(C3CCCC(CCC(F)(F)F)C3)nc21` (single isomer, unassigned) [Example 29D, 7-methoxy-2-(3-(3,3,3-trifluoropropyl)cyclohexyl)-[1,2,4]triazolo[1,5-c]quinazolin-5-amine], for which the pKi is 7.77. For the compound `COc1cccc2c1nc(N)n1nc(C3CC4CCC3N(CC(F)(F)F)C4)nc21` (single isomer, unassigned) [Example 35B, 7-methoxy-2-(2-(2,2,2-trifluoroethyl)-2-azabicyclo[2.2.2]octan-6-yl)-[1,2,4]triazolo[1,5-c]quinazolin-5-amine], the pKi is 7.27.

Compound `COc1cccc2c1nc(N)n1nc([C@@H]3CCCN(CCN4CCOCC4)C3)nc21` [Example 15, (R)-7-methoxy-2-(1-(2-morpholinoethyl)piperidin-3-yl)-[1,2,4]triazolo[1,5-c]quinazolin-5-amine] had a pKi of 8.82. On the same count and under the same terms, under `COc1cccc2c1nc(N)n1nc([C@@H]3CCCN(CC4(C)COC4)C3)nc21` [Example 18, (R)-7-methoxy-2-(1-((3-methyloxetan-3-yl)methyl)piperidin-3-yl)-[1,2,4]triazolo[1,5-d]quinazolin-5-amine] stands 8.52; under `COc1cccc2c1nc(N)n1nc(C3CN(CC(F)F)CC(F)(F)C3)nc21` (single isomer, unassigned) [Example 34A, 2-(1-(2,2-difluoroethyl)-5,5-difluoropiperidin-3-yl)-7-methoxy-[1,2,4]triazolo[1,5-c]quinazolin-5-amine], 8.96. The compound `COc1cccc2c1nc(N)n1nc([C@@H]3CCCN(CC(C)(C)F)C3)nc21` [Example 43, (R)-2-(1-(2-fluoro-2-methylpropyl)piperidin-3-yl)-7-methoxy-[1,2,4]triazolo[1,5-c]triazolo[1,5-c]quinazolin-5-amine] had a pKi of 9.22. With `COc1cccc2c1nc(N)n1nc([C@@H]3CC(F)(F)CN3)nc21` [Example 57, (S)-2-(4,4-difluoropyrrolidin-2-yl)-7-methoxy-[1,2,4]triazolo[1,5-c]quinazolin-5-amine], the pKi was 9.30. Compound `COc1cccc2c1nc(N)n1nc([C@@H]3CCCN(CC(F)F)C3)nc21` [Example 3, (R)-2-(1-(2,2-difluoroethyl)piperidin-3-yl)-7-methoxy-[1,2,4]triazolo[1,5-c]quinazolin-5-amine] had a pKi of 9.40. On to `COc1cccc2c1nc(N)n1nc([C@@H]3CCCN(C4CC4)C3)nc21` [Example 52, (R)-2-(1-cyclopropylpiperidin-3-yl)-7-methoxy-[1,2,4]triazolo[1,5-c]quinazolin-5-amine], for which the negative-log Ki (pKi) is 8.92.

`COc1cccc2c1nc(N)n1nc([C@@H]3CCN(CC(F)(F)F)C3)nc21` [Example 53, (R)-7-methoxy-2-(1-(2,2,2-trifluoroethyl)pyrrolidin-3-yl)-[1,2,4]triazolo[1,5-c]quinazolin-5-amine]: the pKi was 8.70.

In turn, `COc1cccc2c1nc(N)n1nc(C3CCCCN(CC(F)(F)F)C3)nc21` (single isomer, unassigned) [Example 32B, 7-methoxy-2-(1-(2,22-trifluoroethyl)azepan-3-yl)-[1,2,4]triazolo[1,5-c]quinazolin-5-amine] showed a pKi of 8.23. With `COc1cccc2c1nc(N)n1nc(C3CC(F)(F)CCO3)nc21` (single isomer, unassigned) [Example 55B, 2-(4,4-difluorotetrahydro-2H-pyran-2-yl)-7-methoxy-[1,2,4]triazolo[1,5-c]quinazolin-5-amine], the pKi was 8.70. Still for that read-out and setting: under `COc1cccc2c1nc(N)n1nc(C3CNCC(F)(F)C3)nc21` (single isomer, unassigned) [Example 33A, 2-(5,5-difluoropiperidin-3-1-yl)-7-methoxy-[1,2,4]triazolo[1,5-c]quinazolin-5-amine] stands 8.28; under `COc1cccc2c1nc(N)n1nc([C@@H]3CCCN(CC(C(F)(F)F)C(F)(F)F)C3)nc21` [Example 2, (R)-7-methoxy-2-(1-(3,3,3-trifluoro-2-(trifluoromethyl)propyl)piperidin-3-yl)-[1,2,4]triazolo[1,5-c]quinazolin-5-amine], 9.52.

Still in this assay, the particulars now being: values marked ^: 1 μg of membrane/well (HEK293 cells expressing the human A2a receptor); 0.5 nM tritiated radioligand; Cheng-Prusoff.
Regarding `COc1cccc2c1nc(N)n1nc([C@@H]3CCCN(Cc4cccnc4)C3)nc21` [Example 45, 7-methoxy-2-((3R)-1-(pyridin-3-ylmethyl)piperidin-3-yl)[1,2,4]triazolo[1,5-c]quinazolin-5-amine], the pKi was 8.42. Still for that read-out and setting: under `COc1cccc2c1nc(N)n1nc([C@@H]3CCCN(CCCC(F)(F)F)C3)nc21` [Example 16, (R)-7-methoxy-2-(1-(4,4,4-trifluorobutyl)piperidin-3-yl)-[1,2,4]triazolo[1,5-c]quinazolin-5-amine] stands 8.12; under `COc1cccc2c1nc(N)n1nc([C@@H]3CCCN(CC(C)C)C3)nc21` [Example 8, (R)-2-(1-isobutylpiperidin-3-yl)-7-methoxy-[1,2,4]triazolo[1,5-c]quinazolin-5-amine], 7.35; under `COc1cccc2c1nc(N)n1nc([C@@H]3CCCN(C(=O)c4ocnc4C)C3)nc21` [Example 40, 7-methoxy-2-((3R)-1-((4-methyl-1,3-oxazol-5-yl)carbonyl)piperidin-3-yl)[1,2,4]triazolo[1,5-c]quinazolin-5-amine], 8.82. As to `COc1cccc2c1nc(N)n1nc(C3CCN(c4cccc(F)c4)C3)nc21` (racemic) [Example 51, (±)-2-(1-(3-fluorophenyl)pyrrolidin-3-yl)-7-methoxy[1,2,4]triazolo[1,5-c]quinazolin-5-amine], the pKi was 8.85. Regarding `COc1cccc2c1nc(N)n1nc([C@@H]3CCCN(C(=O)c4ccccc4)C3)nc21` [Example 37, (R)-(3-(5-amino-7-methoxy-[1,2,4]triazolo[1,5-c]quinazolin-2-yl)piperidin-1-yl)(phenyl)methanone], the pKi was 8.89.

As to `Nc1nc2c3c(ccc2c2nc(C4CCCN(CCC(F)(F)F)C4)nn12)OC(F)(F)O3` (single isomer, unassigned) [Example 56B], the pKi was 7.26. Compound `C#CC(C)(C)N1CCC[C@@H](c2nc3c4cccc(OC)c4nc(N)n3n2)C1` [Example 9, (R)-7-methoxy-2-(1-(2-methylbut-3-yn-2-yl)piperidin-3-yl)-[1,2,4]triazolo[1,5-c]quinazolin-5-amine] showed a pKi of 7.70. As for `COc1cccc2c1nc(N)n1nc([C@@H]3CCCN(c4nnc(C)s4)C3)nc21` [Example 19, (R)-7-methoxy-2-(1-(5-methyl-1,3,4-thiadiazol-2-yl)piperidin-3-yl)-[1,2,4]triazolo[1,5-c]quinazolin-5-amine], the pKi is 8.70.

Values taken from patent US10822338B2, “Substituted aminoquinazoline compounds as A2A antagonist” (Merck Sharp & Dohme Corp., priority 2015, dated 2020).
